# Data: patent US10852272B2, “Devices and methods using pore size modulation for detecting analytes in a fluid sample” (The Regents of the University of California, priority 2014, dated 2020)
# Key:
# [1] = Dissolution (decrosslinking) kinetics of labile crosslinkers under the dissolution treatment (applied stimulus); type: physicochemical; details: under the dissolution treatment listed per crosslinker (periodic acid, reducing agent, base or acid)
# From the text: Certain properties of labile crosslinkers are described in the table below.
# [2] = Half-life of DK as a function of pH; type: physicochemical; details: buffer
# Protocol: The half-life of DK was 0.03 days at pH 5 and 6 days at pH 7.4 (at 35° C.). To qualitatively confirm decrosslinking functionality, four solutions of tris glycine were titrated to pH values of 8.3, 7.1, 2.6 and 0.07, with the addition of hydrochloric acid. A piece of DK crosslinked PAG was placed into each of the separate solutions to assess dissolution at room temperature. Gels were periodically removed and photographs were taken to qualitatively assess how much gel remained. […] The gels soaking in 8.3 pH and 7.1 pH were not visually affected even after overnight incubation. […] Experiments were performed to study composite crosslinked PAG.
structure (smiles),measurement,setting,value
"C=CC(=O)NC(O)C(O)NC(=O)C=C (centres unmarked) [DHEBA, N,N′-(1,2-dihydroxyethylene)bisacrylamide]",Dissolution Kinetics,[1],Hours
"C=CC(=O)NCCOCCOC(C)(C)OCCOCCNC(=O)C=C [DOK, N,N′-(7,7-dimethyl-3,6,8,11-tetraoxatridecane-1,13-diyl)diacrylamide]",Dissolution Kinetics,[1],Minutes
"C=CC(=O)NCCOC(C)(C)OCCNC(=O)C=C [DK, N-[2-[2-[2-(prop-2-enoylamino)ethoxy]propan-2-yloxy]ethyl]prop-2-enamide]",half-life,"[2]; pH 5, 35° C.",0.72 h
same,half-life,"[2]; pH 7.4, 35° C.",144 h
same,Dissolution Kinetics,[1],Minutes
"C=CC(=O)OCCOC(=O)C=C [EDA, ethylene glycol diacrylate]",Dissolution Kinetics,[1],Minutes
"C=CC(=O)NCCSSCCNC(=O)C=C [BAC, N,N′-bis(acryloyl)cystamine]",Dissolution Kinetics,[1],Minutes
"C=CCNC(=O)C(O)C(O)C(=O)NCC=C (centres unmarked) [DATD, N—N′-diallyltartardiamide]",Dissolution Kinetics,[1],Hours
